Results: patent US20080199485A1 (priority 2007, published 2008)
Entries after “also recorded” stand apart in the source; their conditions may differ.

Key:
[1] = test system: EL-4 cells pulsed with gp33 peptide; assay type: cell-based, mouse
[2] = test system: TCR-transgenic gp33-specific T cells; assay type: cell-based, mouse

Which results are given for KAVYNFATM [gp33]?
CTL response [1]: strongest CTL response; also recorded: weaker CTL responses; IFN-γ production [2]: transiently produced at an early stage; IFN-γ secretion [2]: higher amounts of IFN-gamma; IL-10 production [2]: high amounts of IL-10 with an earlier onset
